Laboratory results as given in ChEMBL document CHEMBL1201862, “PubChem BioAssay data set” (2004).
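1) Cells in 96-well plates. 2) Compound, 48 h, 5 concentrations. 3) Linear interpolation between surrounding doses. 4) Unreached endpoint = highest concentration. Here, GI50 denotes the concentration required for 50% inhibition of growth.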 Activity calls are given as the source filed them. Rule as the data show it: active = GI50 up to about 1.1 µM and inactive = higher.

Columns and labels:
Experiment in all cases: NCI-60 cell line screen, 48 h
[1] = system: T47D
[2] = system: Malme-3M
[3] = system: MOLT-4
[4] = system: OVCAR-8
[5] = system: SF-268
[6] = system: TK-10
[7] = system: COLO 205
[8] = system: DU-145
[9] = system: MDA-MB-231
[10] = system: Hs-578T
[11] = system: 786-0
[12] = system: NCI-H460
[13] = system: SK-MEL-2
[14] = system: CAKI-1
[15] = system: IGROV-1
[16] = system: MCF7
[17] = system: ACHN
[18] = system: MDA-MB-435
[19] = system: K562

Structure (SMILES)	GI50 [1]	GI50 [2]	GI50 [3]	GI50 [4]	GI50 [5]	GI50 [6]	GI50 [7]	GI50 [8]	GI50 [9]	GI50 [10]	GI50 [11]	GI50 [12]	GI50 [13]	GI50 [14]	GI50 [15]	GI50 [16]	GI50 [17]	GI50 [18]	GI50 [19]
FC1(F)[Se]C2C3CCC(C3)C2C1(F)F (stereo not given)	> 100 µM (inactive)	> 100 µM (inactive)	> 100 µM (inactive)	> 100 µM (inactive)	> 100 µM (inactive)	> 100 µM (inactive)	> 100 µM (inactive)	> 100 µM (inactive)	> 100 µM (inactive)	> 100 µM (inactive)	> 100 µM (inactive)	> 100 µM (inactive)	> 100 µM (inactive)	> 100 µM (inactive)	> 100 µM (inactive)	> 100 µM (inactive)	> 100 µM (inactive)	> 100 µM (inactive)	–
CC1=C(N2CC2)C(=O)c2ccccc2C1=O	13.1 µM (inactive)	1.27 µM (inactive)	1.11 µM (active)	0.506 µM (active)	0.359 µM (active)	2.08 µM (inactive)	0.762 µM (active)	0.116 µM (active)	13.8 µM (inactive)	1.36 µM (inactive)	0.871 µM (active)	0.454 µM (active)	1.54 µM (inactive)	0.556 µM (active)	1.47 µM (inactive)	0.249 µM (active)	0.257 µM (active)	1.51 µM (inactive)	0.783 µM (active)
CCCCCCn1c(SC)nc(COC(=O)NC)c1COC(=O)NC	17.7 µM (inactive)	–	13 µM (inactive)	17.4 µM (inactive)	14.6 µM (inactive)	16.7 µM (inactive)	15.8 µM (inactive)	16.5 µM (inactive)	17.6 µM (inactive)	20.4 µM (inactive)	15.3 µM (inactive)	18.1 µM (inactive)	25.8 µM (inactive)	15.7 µM (inactive)	15.3 µM (inactive)	20.1 µM (inactive)	16.6 µM (inactive)	19.7 µM (inactive)	19.3 µM (inactive)
